Structures are written as SMILES. pIC50: −log10 of the molar value.

The values that follow come from ChEMBL document CHEMBL1121760, “Methotrexate analogues. 14. Synthesis of new gamma-substituted derivatives as dihydrofolate reductase inhibitors and potential anticancer agents” (1981).

The target in test [1] is Dihydrofolate reductase (Lactobacillus casei) (UniProt P00381). Conditions: Lacticaseibacillus casei.
Description: Compound was tested for inhibition of Lactobacillus casei dihydrofolate reductase using competitive [3H]MTX binding assay
In a further test the test system is L1210. In words: Growth inhibitory activity against L1210 mouse leukemia cell line. The format is functional. Conditions: read-out: ID50 (the source's name).
Test [2] concerns the target Dihydrofolate reductase (Lactobacillus casei) (UniProt P00381). The settings on record: Lacticaseibacillus casei. The source holds these as a separate data set.
Description: Compound was tested for inhibition of Lactobacillus casei dihydrofolate reductase using spectrophotometric assay at 340 nm
Test [3] concerns the target T1, Dihydrofolate reductase (Mus musculus) (UniProt P00375).
T1 sequence (whole entry): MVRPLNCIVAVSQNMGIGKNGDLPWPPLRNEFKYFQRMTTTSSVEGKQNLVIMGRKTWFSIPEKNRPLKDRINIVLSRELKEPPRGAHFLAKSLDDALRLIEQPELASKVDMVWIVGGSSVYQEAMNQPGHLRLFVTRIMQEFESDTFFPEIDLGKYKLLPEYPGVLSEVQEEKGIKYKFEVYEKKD
The settings on record: L1210.
Description: Compound was tested for inhibition of L1210 dihydrofolate reductase by competitive [3H]MTX binding assay in L1210 mouse leukemia cell lines

Sequence of Dihydrofolate reductase (Lactobacillus casei) (P00381 whole entry): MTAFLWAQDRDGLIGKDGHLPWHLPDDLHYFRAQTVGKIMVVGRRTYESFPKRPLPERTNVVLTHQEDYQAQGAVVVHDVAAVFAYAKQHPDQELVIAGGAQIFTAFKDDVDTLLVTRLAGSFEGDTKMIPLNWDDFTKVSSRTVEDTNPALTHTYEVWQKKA

As for `CCCCNC(=O)CCC(NC(=O)c1ccc(N(C)Cc2cnc3nc(N)nc(N)c3n2)cc1)C(=O)OCc1ccccc1` (stereo not given), the ID50 in test [1] was 250 nM.

With `COC(=O)CCC(NC(=O)c1ccc(N(C)Cc2cnc3nc(N)nc(N)c3n2)cc1)C(=O)OC(C)(C)C` (stereo not given), the pIC50 in the test on L1210 was 5.01. Besides, the ID50 in test [2] was found to be 200 nM; in test [3], 19 nM; in test [1], 2200 nM.

Turning to `CN(Cc1cnc2nc(N)nc(N)c2n1)c1ccc(C(=O)NC(CCC(=O)OC(C)(C)C)C(=O)O)cc1` (stereo not given), the pIC50 in the test on L1210 was 7.70. Moreover, the values for the ID50 in test [2], in test [3] and in test [1] were 25 nM, 2.9 nM and 12 nM, respectively.

For `CN(Cc1cnc2nc(N)nc(N)c2n1)c1ccc(C(=O)NC(CCC(=O)NCc2ccccc2)C(=O)O)cc1` (stereo not given), the pIC50 in the test on L1210 was 7.52.

With `CN(Cc1cnc2nc(N)nc(N)c2n1)c1ccc(C(=O)N[C@@H](CCC(=O)O)C(=O)O)cc1` [METHOTREXATE], in the test on L1210, the pIC50 is 8.00.

As to `CN(Cc1cnc2nc(N)nc(N)c2n1)c1ccc(C(=O)NC(CCC(=O)NN)C(=O)OC(C)(C)C)cc1` (stereo not given), in the test with L1210, the pIC50 is 4.96. For the same compound, the ID50 turned out to be 170 nM in test [2] and 2200 nM in test [1].

`CN(Cc1cnc2nc(N)nc(N)c2n1)c1ccc(C(=O)NC(CCC(=O)O)C(=O)OC(C)(C)C)cc1` (stereo not given): the pIC50 in the test on L1210 was 5.28. The ID50 came out at 36 nM in test [2], 35 nM in test [3] and 210 nM in test [1].

Take `CCCCNC(=O)CCC(NC(=O)c1ccc(N(C)Cc2cnc3nc(N)nc(N)c3n2)cc1)C(=O)O` (stereo not given): the pIC50 in the test with L1210 was 7.05. Moreover, the ID50 in test [2] was determined as 53 nM; in test [3], 3.3 nM; in test [1] it was 36 nM.

As for `CN(Cc1cnc2nc(N)nc(N)c2n1)c1ccc(C(=O)NC(CCC(=O)NN)C(=O)O)cc1` (stereo not given), in the test with L1210, the pIC50 is 7.70. Moreover, the values for the ID50 in test [2], in test [3] and in test [1] were 2.1 nM, 12 nM and 13 nM, respectively.

Consider `COC(=O)C(CCC(=O)OC(C)(C)C)NC(=O)c1ccc(N(C)Cc2cnc3nc(N)nc(N)c3n2)cc1` (stereo not given), for which the pIC50 in the test with L1210 was 5.31. Besides, the ID50 is 330 nM in test [2], 11 nM in test [3] and 3900 nM in test [1].
